We go through 2 compounds from patent publication US4073908A, “8-Amino-theophylline derivatives and therapeutic applications thereof” (Laboratoire le Brun S.A., priority 1975, dated 1978).

In data set [1] the test system is cardiazol convulsions in mice. Briefly: Anti-convulsant effect with respect to cardiazol. To be noted: compared with chlordiazepoxide. Type of data set: in vivo. The source says:
c. Anti-convulsant effect with respect to cardiazol in mice.

For data set [2], the system named is aggressiveness in mice-killing rats. The data set is described as follows: Anti-aggressive: aggressiveness in mice-killing rats. Type of data set: in vivo. The note with it: for ED50: Rattus norvegicus, oral, read-out: Oral AD50, mice-killing rats. The protocol: (§1) d. aggressiveness in mice-killing rats.
(§2) In all cases, the AD50 values were determined by the oral route.

For data set [3], the system named is reserpine effect on temperature and ptosis. The data set is described as follows: Anti-reserpine effect on temperature and ptosis. It counts as in vivo. To be noted: compared with Imipramine. The text has this:
b. Anti-reserpine effect on temperature and ptosis.

Data set [4] has as its system rotarod test in mice. Briefly: Incapacitating effect: rotarod test. It counts as in vivo. To be noted: compared with chlordiazepoxide. The text has this: a. Incapacitating effect: rotarod test in mice.
Background: The rotarod test checks motor coordination on a turning rod.

For data set [5], the system named is rats. The data set is described as follows: Acute toxicity in rats. The note with it: single administration. Type of data set: in vivo. The source says:
(§3) Acute toxicity in mice by the sub-cutaneous and oral routes and in rats by the oral route was investigated by determination of the death rate following a single administration of increasing dosages.
(§4) Symbol > means that the LD50 is not attained at the dosage indicated.

Data set [6] has as its system aggressiveness subsequent to electric shocks in mice. Briefly: Anti-aggressive: aggressiveness subsequent to electric shocks, mice. It counts as in vivo. The note with it: Mus musculus, oral, read-out: Oral AD50, electric shock in mice. The protocol:
(§5) a. aggressiveness subsequent to electric shocks in mice and rats,
as §2

The subject of data set [7] is aggressiveness subsequent to apomorphine injection in rats. The data set is described as follows: Anti-aggressive: aggressiveness subsequent to apomorphine injection, rats. Type of data set: in vivo. The note with it: Rattus norvegicus, oral, apomorphine injection 1 mg/kg, read-out: Oral AD50, apomorphine, in rats. How it is done: (§6) b. aggressiveness subsequent to apomorphine injection (1 mg/kg, in vivo) in rats,
as §2

Data set [8] in a line: Acute toxicity in mice. Type of data set: in vivo. The note with it: mouse, in vivo, single administration.
From the text: as §3, §4

The subject of data set [9] is mice. The data set is described as follows: Acute toxicity in mice. It counts as in vivo. The note with it: oral route, single administration.
From the text: as §3, §4

Data set [10] concerns catalepsy and ptosis. Briefly: Neuroleptic effects: catalepsy and ptosis. To be noted: in vivo.
Data set [11] has as its system narcosis induced by ethanol in mice. Briefly: Effect on narcosis induced by ethanol. It counts as in vivo. The text has this: (§7) d. Effect on narcosis induced by pentobarbital and ethanol in mice.
Data set [12] relates to aggressiveness subsequent to extended isolation in mice. Briefly: Anti-aggressive: aggressiveness subsequent to extended isolation, mice. The note with it: Mus musculus, oral, read-out: Oral AD50, isolated mice. It counts as in vivo. How it is done:
(§8) c. aggressiveness subsequent to extended isolation, in mice,
as §2

Data set [13] concerns rats. Briefly: Oral subacute toxicity in rats. Type of data set: in vivo. To be noted: 1 month old rats, up to a daily dosage of 100 mg/kg. The source says:
Oral subacute toxicity in rats was investigated by determination of the death rate (if any), of the change in the weight of some organs, and by hematologic examinations, and the like.
Subacute toxicity in 1 month old rats, with compounds Nos. 11 and 18

Data set [14] concerns aggressiveness in mice and rats. Briefly: Anti-aggressive tests overall. It counts as in vivo. The note with it: oral. The protocol:
as §5, §6, §8, §1, §2

Data set [15] concerns learning in rats. The data set is described as follows: Effect on learning: Shuttle-box test. Type of data set: in vivo. To be noted: compared with chlordiazepoxide. The source says: f. Effect on learning in rats: Shuttle-box test.
Data set [16] relates to aggressiveness subsequent to electric shocks in rats. The data set is described as follows: Anti-aggressive: aggressiveness subsequent to electric shocks, rats. It counts as in vivo. To be noted: Rattus norvegicus, oral, read-out: Oral AD50, electric shock in rats. The protocol: as §5, §2
Data set [17] deals with stereotypy induced by apomorphine injection in rats. Briefly: Effect on stereotypy induced by apomorphine injection. It counts as in vivo. The source says: e. Effect on stereotypy induced by apomorphine injection in rats.
Data set [18] concerns narcosis induced by pentobarbital in mice. Briefly: Effect on narcosis induced by pentobarbital. Type of data set: in vivo. The note with it: compared with chlordiazepoxide.
From the text: as §7

For data set [19], the system named is writhing in mice. The data set is described as follows: Antalgic: writhing test in mice (intraperitoneal acetic acid). Type of data set: in vivo. To be noted: Mus musculus, oral route, read-out: AD50 on administration of acetic acid. How it is done:
(§9) The following tests were carried out:
(§10) a. writhing test in mice, by the oral route (on intraperitoneal administration of acetic acid),
(In general: Writhing tests count abdominal constrictions after an irritant is injected.)

The nature of data set [20]: Acute toxicity in rats. Type of data set: in vivo. To be noted: rat, in vivo, po, single administration.
From the text: as §3, §4

Data set [21] deals with group toxicity of amphetamine in mice. The data set is described as follows: Antagonistic activity on the group toxicity of amphetamine in mice. It counts as in vivo. To be noted: Mus musculus, read-out: AD50, antagonistic activity on the group toxicity of amphetamine.
Data set [22] deals with psychotropic activity. The data set is described as follows: Psychotropic activity, overall profile. The note with it: in vivo. The source says: The psychotropic and anti-inflammatory effects of the derivatives of this invention were investigated according to several methods described hereinafter.
Data set [23] relates to licking reflex in mice. Briefly: Antalgic: hot-plate test, licking reflex. It counts as in vivo. The note with it: Mus musculus, plate heated at 65° C., read-out: AD50 in the hot-plate test (licking reflex). The protocol:
as §9
(§11) b. hot-plate test: licking reflex in mice on a plate heated at 65° C.
A general note: Thermal pain tests record how soon the animal reacts.

The subject of data set [24] is motor activity in mice. The data set is described as follows: Motor-stimulant or -depressant activity, light-beam activometer. It counts as in vivo. The note with it: sub-cutaneous or oral routes. How it is done:
The motor-stimulant or -depressant activities were investigated in mice by the sub-cutaneous or oral routes by means of an activometric technique (light-beam activometer).
The dosages which increase or decrease the number of cases over the 50% limit were determined with respect to concomitantly effected reference tests.

For data set [25], the system named is antalgic activity in mice. Briefly: Antalgic activity overall (writhing and hot-plate). Type of data set: in vivo. The protocol: as §9, §10, §11
[26] abbreviates: sc, read-out: LD50, s.c. route, mice.

As to `Cn1c(=O)c2c(nc3n2CCN3CCN2CCN(c3cccc(Cl)c3)CC2)n(C)c1=O` [Compound 11], the anti-convulsant effect entry in data set [1] is “does not, as the latter compound, exhibit incapacitating, anti-convulsant”. Also, the ED50 in [2] was 50 mg/kg; in data set [6], 30 mg/kg; in data set [7] it was 140 mg/kg; in [12], 10 mg/kg; in [16], 45 mg/kg. For the same compound, the “activity in the mice-killing test in rats relative to Imipramine” value in [2] (compared with Imipramine) was “Superior to Imipramine in the mice-killing test in rats”. The anti-reserpinic effect result in data set [3] was “absence of anti-reserpinic effect”. Also, the incapacitating effect result in [4] is “does not, as the latter compound, exhibit incapacitating”. Also, the “LD50, oral route, rats” value in data set [5] is 1000 mg/kg. Moreover, the LD50 (as a rule, the dose expected to kill half of the subjects tested) in [8] (setting [26]) is over 300 mg/kg. Besides, in data set [9], the “LD50, oral route, mice” value amounted to 450 mg/kg. In [10], the catalepsy entry is on record as “absence of apomorphinic anti-stereotypy, of catalepsy”. Further, in data set [10], the ptosis entry is “absence of apomorphinic anti-stereotypy, of catalepsy and of ptosis”. In addition, in data set [11], the ethanol-induced narcosis-potentiating effect entry is “does not, as the latter compound, exhibit incapacitating, anti-convulsant, pentobarbitalor ethanol-induced narcosis-potentiating”. Moreover, in [13], the “death rate (fatal issue)” value was “No fatal issue was noted”. Further, in data set [14], the “anti-aggressive activity (in words)” value is “in most cases, are superior to those of chlordiazepoxide in the anti-aggressive tests”. Besides, the learning-delaying effect entry in data set [15] is on record as “does not, as the latter compound, exhibit incapacitating, anti-convulsant, pentobarbitalor ethanol-induced narcosis-potentiating, or learning-delaying effects”. The apomorphinic anti-stereotypy result in data set [17] is listed as “absence of apomorphinic anti-stereotypy”. Further, the pentobarbital-induced narcosis-potentiating effect result in data set [18] is reported as “does not, as the latter compound, exhibit incapacitating, anti-convulsant, pentobarbitalor ethanol-induced narcosis-potentiating”.

On to `Cn1c(=O)c2c(nc3n2CCCN3CCN2CCN(c3cccc(Cl)c3)CC2)n(C)c1=O` [Compound 18, 9-(2-4-(m-chlorophenyl)piperazin-1-yl!-ethyl)1,3-dimethyl-6,7,8,9-tetrahydropyrimidino(2,1-f)-purine-2,4-dione], for which the ED50 in [2] was determined as 22 mg/kg; in data set [19] it was 13 mg/kg; in data set [6], 15 mg/kg; in data set [21], 20 mg/kg; in data set [7], 85 mg/kg; in data set [12] it was 9 mg/kg. For the same compound, the ED50 turned out to be 8.5 mg/kg in data set [23]; 45 mg/kg in [16]; 7.5 mg/kg in [24] (Mus musculus, read-out: AD50, sedative action). In addition, the LD50 in [20] is over 100 mg/kg; in data set [8] (po, read-out: LD50, oral route, mice), over 300 mg/kg; in [8] (setting [26]), over 300 mg/kg. Besides, the ethanol-induced narcosis-potentiating effect entry in data set [11] is given as “potentiates ethanol-induced narcosis”. Besides, the “psychotropic activity (in words)” value in [22] is listed as “has the same characteristics”. Also, in data set [13], the “death rate (fatal issue)” value is given as “No fatal issue was noted”. For the same compound, the “sedative action (in words)” value in data set [24] is given as “more sedative”. In addition, the “antalgic activity (in words)” value in data set [25] is listed as “more antalgic”.
